# Data taken from patent publication US20060089395A1, “Nf-kb activation inhibitors” (priority 2002, published 2006).
# Like-named read-outs stand apart in the source and are kept apart here.
# Tested on: NF-κ B
# Assay: Inhibitory activity of NF-κ B activation, luciferase reporter assay in HepG2 under TNF-α stimulation
# Type: cell-based, human
# Outline: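 Readout is firefly luciferase luminescence, expressed as inhibition versus compound-free wells. Before this, HepG2 cells carrying a transiently transfected 5×NF-κB-site luciferase plasmid (6–24 h post-transfection) received test compound plus TNF-α (40 ng/ml) for 4 h.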
# [1] = 1 μg/mL, HepG2, TNF-α (40 ng/ml), 4 hours
# [2] = 10 μg/mL, HepG2, TNF-α (40 ng/ml), 4 hours
# [3] = Homo sapiens, 1 μg/mL, HepG2, TNF-α (40 ng/ml), 4 hours, read-out: Inhibitory Ratio of NF-κ B Activation(%) Drug Concentration 1 μg/mL
# [4] = Homo sapiens, 10 μg/mL, HepG2, TNF-α (40 ng/ml), 4 hours, read-out: Inhibitory Ratio of NF-κ B Activation(%) Drug Concentration 10 μg/mL
SMILES,Inhibitory Ratio of NF-κ B Activation(%) Drug Concentration 1 μg/mL [1] [%],Inhibitory Ratio of NF-κ B Activation(%) Drug Concentration 10 μg/mL [2] [%],further results
O=C(Nc1cc(C(F)(F)F)ccc1Oc1ccc2ccccc2c1)c1cc(Cl)ccc1O [Compound No. 110],96.5,98.7,
"CC(C)C(=O)c1ccc(O)c(C(=O)Nc2cc(C(F)(F)F)cc(C(F)(F)F)c2)c1 [Compound No. 34, N-[3,5-Bis(trifluoromethyl)phenyl]-2-hydroxy-5-isobutyrylbenzamide]",,,inhibition at 1 µg/mL [3]: 90.7%; inhibition at 10 µg/mL [4]: 98.7%
O=C(Nc1cc(C(F)(F)F)ccc1F)c1cc(Cl)ccc1O [Compound No. 87],93.1,95.9,
"O=C(Nc1ccc(C(F)(F)F)cc1)c1cc(Cl)ccc1O [drawing 561, reference compound]",,,"inhibition at 0.1 µg/mL (Homo sapiens, HepG2, 4 h, 0.1 μg/ml, comparison table, reporter assay, read-out: Inhibitory Ratio of NF-κB Activation (%) 0.1 μg/ml): -35.5%; inhibition at 1 µg/mL (Homo sapiens, HepG2, 4 h, 1 μg/ml, comparison table, reporter assay, read-out: Inhibitory Ratio of NF-κB Activation (%) 1 μg/ml): 85.3%; inhibition at 10 µg/mL (Homo sapiens, HepG2, 4 h, 10 μg/ml, comparison table, reporter assay, read-out: Inhibitory Ratio of NF-κB Activation (%) 10 μg/ml): 95%"
"CC(C)(C)c1nc(NC(=O)c2cc(Cl)ccc2O)sc1C#N [Compound No. 188, 5-Chloro-N-{5-cyano-4-[(1,1-dimethyl)ethyl]thiazol-2-yl)-2-hydroxybenzamide]",,,inhibition at 1 µg/mL [3]: 92.6%; inhibition at 10 µg/mL [4]: 92.4%
O=C(Nc1ccc(Cl)nc1)c1cc(Cl)ccc1O [compound 240],14.3,92.3,
Cc1cc(Br)cc(C(=O)Nc2cc(C(F)(F)F)cc(C(F)(F)F)c2)c1O [Compound No. 258],>99.9,,
CCCCOc1ccc(OCCCC)c(NC(=O)c2cc(Cl)ccc2O)c1 [Compound No. 161],94.2,97.6,
Cc1ccc(S(=O)(=O)c2ccc(Cl)cc2NC(=O)c2cc(Cl)ccc2O)cc1 [Compound No. 168],46.7,97.8,
O=C(Nc1cc(Cl)cc(Cl)c1)c1cc(Br)cc(Br)c1O [Compound No. 128],91.4,95.1,
CC(=O)Oc1ccccc1C(=O)Nc1cc(Cl)cc(Cl)c1 [Compound No. 121],92.9,95.5,
CC(C)(C)c1cc(NC(=O)c2cc(Cl)cnc2O)cc(C(C)(C)C)c1 [Compound No. 184],53.6,63.8,
CNC(=O)c1sc(NC(=O)c2cc(Br)ccc2O)nc1-c1ccccc1 [Compound No. 220],50.8,58.6,
Cc1ccc(C(=O)C(C)(C)C)cc1NC(=O)c1cc(Cl)ccc1O [compound 166],94.1,96.4,
COc1cc(NC(=O)c2cc(Cl)ccc2O)cc(C(F)(F)F)c1 [Compound No. 105],94.6,97.5,
CCOC(=O)c1sc(NC(=O)c2cc(-n3cccc3)ccc2O)nc1-c1ccccc1 [Compound No. 229],74.0,90.1,
COc1cc(Cl)nc(NC(=O)c2cc(Cl)ccc2O)n1 [Compound No. 241],25.5,78.9,

SMILES,Inhibitory Ratio of NF-κ B Activation(%) Drug Concentration 1 μg/mL [1] [%],Inhibitory Ratio of NF-κ B Activation(%) Drug Concentration 10 μg/mL [2] [%],further results
O=C(Nc1cc(C(F)(F)F)ccc1[N+](=O)[O-])c1cc(Cl)ccc1O [Compound No. 91],86.3,96.7,
Cc1ccc(S(=O)(=O)c2ccc(Cl)c(NC(=O)c3cc(Cl)ccc3O)c2)cc1 [Compound No. 169],31.6,95.9,
CC(=O)Oc1ccc(Cl)cc1C(=O)Nc1nc(C(C)(C)C)c(C(=O)C(C)(C)C)s1 [Compound No. 200],95.0,97.7,
"CC(C)c1nc(NC(=O)c2cc(Br)ccc2O)sc1-c1ccccc1 [Compound No. 197, 5-Bromo-N-(4-isopropyl-5-phenylthiazol-2-yl)-2-hydroxybenzamide]",,,inhibition at 1 µg/mL [3]: 70.1%; inhibition at 10 µg/mL [4]: 96.1%
"CCOC(=O)c1sc(NC(=O)c2cc(Br)ccc2O)nc1C(C)(C)C [Compound No. 202, 2-(5-Bromo-2-hydroxybenzoyl)amino-4-[(1,1-dimethyl)ethyl]thiazole-5-carboxylic acid ethyl ester]",,,inhibition at 1 µg/mL [3]: 84.5%; inhibition at 10 µg/mL [4]: 92.4%
"Cc1cccc(C(=O)Nc2cc(C(F)(F)F)cc(C(F)(F)F)c2)c1O [Compound No. 58, N-[3,5-bis(trifluoromethyl)phenyl]-2-hydroxy-3-methylbenzamide]",,,inhibition at 1 µg/mL [3]: 88.2%; inhibition at 10 µg/mL [4]: 95%
"CC(C)(C)c1nc(NC(=O)c2cc(Br)ccc2O)sc1Br [Compound No. 186, 5-Bromo-N-{5-bromo-4-[(1,1-dimethyl)ethyl]thiazol-2-yl}-2-hydroxybenzamide]",,,inhibition at 1 µg/mL [3]: 96.5%; inhibition at 10 µg/mL [4]: 98.7%
"CC(=O)Oc1ccccc1C(=O)Nc1cc(C(F)(F)F)cc(C(F)(F)F)c1 [compound 1, 2-acetoxy-N-[3,5-bis(trifluoromethyl)phenyl]benzamide]",,,inhibition at 1 µg/mL [3]: 90.9%; inhibition at 10 µg/mL [4]: 97.1%
O=C(Nc1nc(-c2ccccc2)c(-c2ccccc2)o1)c1cc(Br)ccc1O [Compound No. 235],,81.8,
"O=C(Nc1nc(-c2cc(C(F)(F)F)cc(C(F)(F)F)c2)cs1)c1cc(Cl)ccc1O [Compound No. 231, 5-Chloro-2-hydroxy-N-{4-[3,5-bis(trifluoromethyl)phenyl]thiazol-2-yl}benzamide]",,,inhibition at 1 µg/mL [3]: 95.9%; inhibition at 10 µg/mL [4]: 94.5%
COc1ccc(C(F)(F)F)cc1NC(=O)c1cc(Cl)ccc1O [Compound No. 95],91.8,98.5,
Cc1nc(NC(=O)c2cc(Br)ccc2O)sc1C [Compound No. 191],,67.2,
O=C(Nc1cc(C(F)(F)F)ccc1Oc1ccc(Cl)cc1Cl)c1cc(Cl)ccc1O [Compound No. 111],96.5,99.7,
"O=C(Nc1cc(C(F)(F)F)cc(C(F)(F)F)c1)c1cc([N+](=O)[O-])ccc1O [Compound No. 8, N-[3,5-bis(trifluoromethyl)phenyl]-2-hydroxy-5-nitrobenzamide]",,,inhibition at 1 µg/mL [3]: 92%; inhibition at 10 µg/mL [4]: 99.2%
CCCCc1ccc([N+](=O)[O-])cc1NC(=O)c1cc(Cl)ccc1O [Compound No. 176],96.0,99.5,
O=C(Nc1nnc(C(F)(F)F)s1)c1cc(Br)ccc1O [Compound No. 238],26.1,90.3,
O=C(Nc1nc(C(F)(F)F)c(-c2ccccc2)s1)c1cc(Br)ccc1O [Compound No. 213],85.1,89.4,
